In ChEMBL document CHEMBL1151560, “Nonpeptide glycoprotein IIb/IIIa inhibitors: 18. Indole alpha-sulfonamide acids are potent inhibitors of platelet aggregation” (Bioorg Med Chem Lett, 1997) one finds IC50, Binding and ED50 data, which are given here for 17 compounds.

The species named for one data set is Homo sapiens. Put plainly: Inhibition of ADP-induced platelet aggregation in human gel-filtered platelets. It is filed as functional.
In data set [1] the target is T1, Albumin (Homo sapiens, UniProt P02768). Put plainly: Protein Binding Assay measures the ability of a compound to bind to human albumin in pH 7.4 buffer.
T1 sequence (P02768 whole entry): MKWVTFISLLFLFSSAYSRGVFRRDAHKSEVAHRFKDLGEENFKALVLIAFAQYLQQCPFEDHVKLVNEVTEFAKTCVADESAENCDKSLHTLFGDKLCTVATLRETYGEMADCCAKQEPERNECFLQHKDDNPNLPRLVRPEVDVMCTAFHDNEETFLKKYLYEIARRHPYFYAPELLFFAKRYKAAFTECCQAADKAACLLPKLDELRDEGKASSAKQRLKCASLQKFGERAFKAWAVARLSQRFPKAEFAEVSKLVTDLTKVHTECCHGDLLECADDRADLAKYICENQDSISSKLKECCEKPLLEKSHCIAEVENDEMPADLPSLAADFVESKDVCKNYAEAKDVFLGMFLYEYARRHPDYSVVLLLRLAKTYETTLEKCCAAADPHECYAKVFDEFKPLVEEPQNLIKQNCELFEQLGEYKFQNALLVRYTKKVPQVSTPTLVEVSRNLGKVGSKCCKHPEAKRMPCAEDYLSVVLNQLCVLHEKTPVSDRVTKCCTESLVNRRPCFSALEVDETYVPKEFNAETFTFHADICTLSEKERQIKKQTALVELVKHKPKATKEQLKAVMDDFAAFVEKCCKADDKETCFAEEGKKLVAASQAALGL
Data set [2] has as its target Integrin alpha-IIb/beta-3 (Homo sapiens) (UniProt P05106+P08514). Description: Evaluated for competitive binding against fibrinogen receptor antagonist [125I]-L-692,884 to purified alpha IIb beta-3 integrin activated by coating onto yttrium silicate Scintillation Proximity Assay Fluomicrospheres (SPA-A assay). It is filed as protein-complex assay. A general note: Scintillation proximity formats need no separation of bound from free tracer.

Data set [3] addresses T1, Albumin. Put plainly: Protein Binding Assay measures the ability of a compound to bind to human albumin in pH 7.4 buffer.; not soluble.

In general, IC50 refers to the point on the concentration scale where inhibition reaches its midpoint.

In the data set filed under Homo sapiens, `Nc1cc(COc2ccc3[nH]c(C(=O)NC[C@H](NS(=O)(=O)c4ccccc4)C(=O)O)cc3c2)ccn1` had an IC50 of 45 nM. Moreover, the Binding on Albumin [1] was found to be 99%. In data set [2], this compound registered an ED50 of 0.07 nM.

In the data set filed under Homo sapiens, `Cn1c(C(=O)NC[C@H](NS(=O)(=O)c2ccccc2)C(=O)O)cc2cc(OCC3CCNCC3)ccc21` had an IC50 of 15 nM. The compound also displayed a Binding on Albumin [1] of 94%.

In turn, `O=C(NC[C@H](NS(=O)(=O)c1cccnc1)C(=O)O)c1cc2cc(OCC3CCNCC3)ccc2[nH]1` displayed an IC50 in the data set listed under Homo sapiens of 12 nM. The compound further showed an ED50 in data set [2] of 0.07 nM.

Take `O=C(NC[C@H](NS(=O)(=O)c1ccccc1)C(=O)O)c1cc2cc(OCCn3ccnc3)ccc2[nH]1`: in the data set listed under Homo sapiens, the half-maximal inhibitory concentration (IC50) worked out at 45 nM. This compound returned a Binding at Albumin [1] of 98%. The ED50 in data set [2] worked out at 0.28 nM.

`O=C(NC[C@H](NS(=O)(=O)c1ccccc1)C(=O)O)c1cc2cc(OCC3CCNCC3)ccc2[nH]1` registered an IC50 in the data set listed under Homo sapiens of 13 nM. The Binding at Albumin [1] worked out at 66%. In data set [2], this compound gave an ED50 of 0.099 nM.

Consider `O=C(O)CC(NC(=O)c1cc2cc(OCC3CCNCC3)ccc2[nH]1)c1cccnc1` (stereo not given), for which half-maximal inhibition in the data set filed under Homo sapiens (IC50) was put at 810 nM. The compound further registered a Binding on Albumin [1] of 47%.

`O=C(NC[C@H](NS(=O)(=O)c1ccccc1)C(=O)O)c1cc2cc(OCC3CCNCC3)ccc2n1Cc1ccccc1`: in the data set filed under Homo sapiens, the IC50 turned out to be 150 nM. Moreover, the Binding entry on Albumin [3] is listed as “Insoluble”.

`Cc1ccc(S(=O)(=O)N[C@@H](CNC(=O)c2cc3cc(OCC4CCNCC4)ccc3[nH]2)C(=O)O)cc1` registered an IC50 in the data set listed under Homo sapiens of 6 nM. Further, at Albumin [1], the Binding was 85%. Besides, the ED50 in data set [2] amounted to 0.06 nM.

In the data set listed under Homo sapiens, `O=C(Cc1c[nH]c2ccc(OCC3CCNCC3)cc12)NC[C@H](NS(=O)(=O)c1ccccc1)C(=O)O` showed an IC50 of 5700 nM. In addition, the Binding result at Albumin [3] is “Insoluble”.

Regarding `O=C(NC[C@H](NS(=O)(=O)c1ccccc1)C(=O)O)c1cc2cc(OCCN3CCNCC3)ccc2[nH]1`, 12 nM corresponded to half-maximal inhibition in the data set filed under Homo sapiens (IC50). The compound further showed a Binding on Albumin [1] of 57%. The compound also displayed an ED50 in data set [2] of 0.13 nM.

Turning to `O=C(NC[C@H](NS(=O)(=O)c1ccccc1)C(=O)O)c1cc2cc(OCc3ccncc3)ccc2[nH]1`, half-maximal inhibition in the data set listed under Homo sapiens (IC50) was put at 280 nM. For the same compound, the Binding on Albumin [1] came out at 99%. Moreover, the ED50 in data set [2] is 0.25 nM.

Consider `O=C(NC[C@H](NS(=O)(=O)c1ccccc1)C(=O)O)c1cc2cc(OCCCc3c[nH]cn3)ccc2[nH]1`, for which, in the data set filed under Homo sapiens, it took 100 nM to reach half-maximal inhibition (IC50). The same compound came in with a Binding at Albumin [1] of 98%. Further, the ED50 in data set [2] amounted to 2 nM.

In the case of `O=C(NC[C@H](NS(=O)(=O)c1ccccc1)C(=O)O)c1cc2ccc(OCC3CCNCC3)cc2[nH]1`, the half-inhibitory concentration (IC50) in the data set filed under Homo sapiens turned out to be 15 nM. On Albumin [1], this compound had a Binding of 57%. In data set [2], this compound yielded an ED50 of 0.49 nM.

As for `Cn1c(C(=O)NC[C@H](NS(=O)(=O)c2ccccc2)C(=O)O)cc2cc(OCCC3CCNCC3)ccc21`, the midpoint of inhibition in the data set filed under Homo sapiens, the IC50, lay at 21 nM. Besides, the Binding at Albumin [1] was 94%.

`O=C(O)CCNC(=O)c1cc2cc(OCC3CCNCC3)ccc2[nH]1` returned an IC50 in the data set filed under Homo sapiens of 1000 nM. Moreover, on Albumin [1], the Binding is listed as 52%. For the same compound, the ED50 in data set [2] was 170 nM.

In the data set listed under Homo sapiens, `O=C(NC[C@H](NS(=O)(=O)c1ccccc1)C(=O)O)c1cc2cc(OCCC3CCNCC3)ccc2[nH]1` gave a 50% inhibitory concentration (IC50) of 8 nM. Also, the Binding on Albumin [1] was determined as 76%. The ED50 in data set [2] came out at 0.056 nM.

`CC1(C)C2CCC1(CS(=O)(=O)N[C@@H](CNC(=O)c1cc3cc(OCC4CCNCC4)ccc3[nH]1)C(=O)O)C(=O)C2` (stereo not given in full): the IC50 in the data set listed under Homo sapiens is 17 nM. In addition, the Binding on Albumin [1] is listed as 63%. In addition, in data set [2], the ED50 was 0.04 nM.
